{"source": "patent US20080009418A1", "about": "“Selective Inhibitors” (Alchemia LTD., priority 2004, published 2008)", "key": {"Human melanocortin (MC5)": {"target": "T1, Human melanocortin (MC5) (Homo sapiens, UniProt P33032)", "T1 construct": "purchased Perkin Elmer Biosignal", "T1 sequence (P33032 whole entry)": "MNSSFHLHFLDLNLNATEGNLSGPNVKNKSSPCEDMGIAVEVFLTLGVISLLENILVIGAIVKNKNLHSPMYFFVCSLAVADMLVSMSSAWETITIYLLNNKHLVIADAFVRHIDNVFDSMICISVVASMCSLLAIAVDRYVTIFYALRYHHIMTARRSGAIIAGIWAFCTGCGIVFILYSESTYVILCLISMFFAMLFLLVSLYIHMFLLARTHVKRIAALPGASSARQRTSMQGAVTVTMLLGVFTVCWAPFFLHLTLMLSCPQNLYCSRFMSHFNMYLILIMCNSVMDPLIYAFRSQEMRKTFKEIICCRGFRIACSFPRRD", "assay": "Radioligand binding, human melanocortin MC5 membranes, FlashPlate, [125I]-NDP-αMSH", "conditions": "compound at 10 μM, [125I]-NDP-αMSH; for A5: inhibition of radioligand binding: human MC5 membranes", "how_it_was_run": "(§1)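 Cloned human receptor membranes were coated onto FlashPlate wells and incubated with radioligand and compound (added from a 0.5 mM DMSO daughter plate) for 1 hour at room temperature in the dark. Scintillation counting gave percent inhibition, with DMSO defining total and reference ligand defining non-specific binding.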"}, "Human Melanocortin (MC4)": {"target": "T2, Human Melanocortin (MC4) (Homo sapiens, UniProt P32245)", "T2 construct": "purchased Perkin Elmer Biosignal", "T2 sequence (P32245 whole entry)": "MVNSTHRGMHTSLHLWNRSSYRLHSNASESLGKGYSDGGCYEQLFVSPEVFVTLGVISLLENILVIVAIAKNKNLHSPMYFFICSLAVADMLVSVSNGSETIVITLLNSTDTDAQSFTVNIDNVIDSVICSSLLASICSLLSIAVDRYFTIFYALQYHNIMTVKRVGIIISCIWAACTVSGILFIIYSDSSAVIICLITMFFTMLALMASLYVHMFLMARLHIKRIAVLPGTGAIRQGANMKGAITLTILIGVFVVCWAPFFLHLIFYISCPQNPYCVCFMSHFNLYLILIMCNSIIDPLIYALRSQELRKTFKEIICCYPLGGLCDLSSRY", "assay": "Radioligand binding, human melanocortin MC4 membranes, FlashPlate, [125I]-NDP-αMSH", "conditions": "compound at 10 μM, [125I]-NDP-αMSH; for A4: inhibition of radioligand binding: human MC4 membranes", "how_it_was_run": "as §1"}, "Human δ-opioid (DOP)": {"target": "T3, Human δ-opioid (DOP) (Homo sapiens, UniProt P41143)", "T3 construct": "purchased Perkin Elmer Biosignal", "T3 sequence (P41143 whole entry)": "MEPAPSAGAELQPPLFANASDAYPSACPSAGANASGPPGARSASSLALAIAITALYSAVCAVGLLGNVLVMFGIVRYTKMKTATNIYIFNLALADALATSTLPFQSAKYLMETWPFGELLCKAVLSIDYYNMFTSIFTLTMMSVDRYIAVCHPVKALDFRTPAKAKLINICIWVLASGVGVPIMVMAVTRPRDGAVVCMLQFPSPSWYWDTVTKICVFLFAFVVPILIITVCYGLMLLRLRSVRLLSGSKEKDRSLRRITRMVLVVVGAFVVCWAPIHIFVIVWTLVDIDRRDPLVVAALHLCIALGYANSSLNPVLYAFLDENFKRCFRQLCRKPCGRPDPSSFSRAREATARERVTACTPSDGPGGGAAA", "assay": "Radioligand binding, human δ-opioid (DOP) membranes, FlashPlate, [3H]-Bremazocine", "conditions": "compound at 10 μM, [3H]-Bremazocine; for A1: inhibition of radioligand binding: human DOP membranes", "how_it_was_run": "as §1"}, "Human μ-opioid (MOP)": {"target": "T4, Human μ-opioid (MOP) (Homo sapiens, UniProt P35372)", "T4 construct": "purchased Perkin Elmer Biosignal", "T4 sequence (P35372 whole entry)": "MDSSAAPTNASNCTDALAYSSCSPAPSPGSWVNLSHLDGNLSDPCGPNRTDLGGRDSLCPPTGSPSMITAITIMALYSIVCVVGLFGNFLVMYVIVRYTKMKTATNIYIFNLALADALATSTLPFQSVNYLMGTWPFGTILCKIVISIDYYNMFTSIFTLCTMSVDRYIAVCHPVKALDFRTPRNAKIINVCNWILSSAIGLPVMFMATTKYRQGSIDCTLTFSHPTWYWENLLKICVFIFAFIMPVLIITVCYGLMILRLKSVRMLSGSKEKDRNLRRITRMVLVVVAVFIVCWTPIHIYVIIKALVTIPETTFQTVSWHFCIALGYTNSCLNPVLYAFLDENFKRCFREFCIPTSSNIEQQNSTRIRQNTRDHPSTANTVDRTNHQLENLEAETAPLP", "assay": "Radioligand binding, human μ-opioid (MOP) membranes, FlashPlate, [3H]-Naloxone", "conditions": "compound at 10 μM, [3H]-Naloxone; for A7: inhibition of radioligand binding: human MOP membranes", "how_it_was_run": "as §1"}, "Mouse urotensin (mUR2)": {"target": "T5, Mouse urotensin (mUR2) (Mus musculus, UniProt Q8VIH9)", "T5 construct": "purchased Perkin Elmer Biosignal", "T5 sequence (Q8VIH9 1-385)": "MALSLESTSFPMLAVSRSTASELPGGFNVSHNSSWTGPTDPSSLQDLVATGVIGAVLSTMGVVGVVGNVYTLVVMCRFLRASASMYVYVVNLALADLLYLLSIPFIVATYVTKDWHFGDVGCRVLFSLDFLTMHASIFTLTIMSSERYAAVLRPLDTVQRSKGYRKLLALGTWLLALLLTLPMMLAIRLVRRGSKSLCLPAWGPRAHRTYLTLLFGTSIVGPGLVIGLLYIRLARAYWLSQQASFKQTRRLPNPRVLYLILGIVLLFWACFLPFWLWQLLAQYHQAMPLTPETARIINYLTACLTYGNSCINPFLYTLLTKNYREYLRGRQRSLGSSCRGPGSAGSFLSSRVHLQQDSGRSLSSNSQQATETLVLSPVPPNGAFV", "assay": "Radioligand binding, mouse urotensin mUR2 membranes, FlashPlate, [125I]-Urotensin II", "conditions": "compound at 10 μM, [125I]-Urotensin II; for A11: inhibition of radioligand binding: mouse mUR2 membranes", "how_it_was_run": "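Cloned mouse urotensin (mUR2) receptor membranes from Perkin Elmer Biosignal were immobilized in FlashPlate microplates using a proprietary coating. Each well got 19.5 μl buffer, then 0.5 μl of DMSO, reference ligand, or compound. Adding 5 μl of [125I]-Urotensin II, diluted to 5× final concentration in binding buffer, started binding. Plates were sealed with TopSeal-A and incubated 1 hour at room temperature in the dark. Wells were counted for 30 seconds each on a TopCount after a 60-second delay, and percentage inhibition was calculated.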"}, "Human Melanocortin (MC3)": {"target": "T6, Human Melanocortin (MC3) (Homo sapiens, UniProt P41968)", "T6 construct": "purchased Perkin Elmer Biosignal", "T6 sequence (P41968 whole entry)": "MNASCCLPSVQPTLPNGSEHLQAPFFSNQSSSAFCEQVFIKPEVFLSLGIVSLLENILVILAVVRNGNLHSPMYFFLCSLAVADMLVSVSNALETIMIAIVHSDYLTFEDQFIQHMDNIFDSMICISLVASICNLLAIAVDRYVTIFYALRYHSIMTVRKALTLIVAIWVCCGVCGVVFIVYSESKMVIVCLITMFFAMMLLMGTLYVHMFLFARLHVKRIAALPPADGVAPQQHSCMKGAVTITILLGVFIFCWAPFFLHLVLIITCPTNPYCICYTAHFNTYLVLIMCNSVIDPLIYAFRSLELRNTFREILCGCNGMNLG", "assay": "Radioligand binding, human melanocortin MC3 membranes, FlashPlate, [125I]-NDP-αMSH", "conditions": "compound at 10 μM, [125I]-NDP-αMSH; for A3: inhibition of radioligand binding: human MC3 membranes", "how_it_was_run": "as §1"}, "Human neurokinin (NK1)": {"target": "T7, Human neurokinin (NK1) (Homo sapiens, UniProt P25103)", "T7 construct": "purchased Perkin Elmer Biosignal", "T7 sequence (P25103 whole entry)": "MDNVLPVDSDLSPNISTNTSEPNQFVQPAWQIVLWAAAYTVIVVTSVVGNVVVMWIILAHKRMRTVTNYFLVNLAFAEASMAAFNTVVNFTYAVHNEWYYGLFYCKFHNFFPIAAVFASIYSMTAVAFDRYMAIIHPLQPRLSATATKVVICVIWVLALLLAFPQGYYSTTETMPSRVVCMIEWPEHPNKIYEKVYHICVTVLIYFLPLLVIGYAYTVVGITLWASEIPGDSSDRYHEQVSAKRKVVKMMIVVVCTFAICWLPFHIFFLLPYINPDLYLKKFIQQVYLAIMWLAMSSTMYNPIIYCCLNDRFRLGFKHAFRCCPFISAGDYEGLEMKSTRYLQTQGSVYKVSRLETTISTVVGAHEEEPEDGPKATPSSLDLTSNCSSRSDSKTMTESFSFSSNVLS", "assay": "Radioligand binding, human neurokinin NK1 membranes, filtration, [125I]-Substance P", "conditions": "compound at 10 μM, [125I]-Substance P; for A8: inhibition of radioligand binding: human NK1 membranes", "how_it_was_run": "(§2)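 Membranes from cloned human receptors were incubated with compound and radioligand for 1 hour at room temperature. Bound ligand was collected on 0.3% PEI-soaked filters, washed with cold 50 mM Tris-HCl pH 7.4, and counted by scintillation. Percent inhibition was computed against DMSO totals and reference-ligand nonspecific wells.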"}, "Human opioid (ORL1)": {"target": "T8, Human opioid (ORL1) (Homo sapiens, UniProt P41146)", "T8 construct": "purchased Perkin Elmer Biosignal", "T8 sequence (P41146 whole entry)": "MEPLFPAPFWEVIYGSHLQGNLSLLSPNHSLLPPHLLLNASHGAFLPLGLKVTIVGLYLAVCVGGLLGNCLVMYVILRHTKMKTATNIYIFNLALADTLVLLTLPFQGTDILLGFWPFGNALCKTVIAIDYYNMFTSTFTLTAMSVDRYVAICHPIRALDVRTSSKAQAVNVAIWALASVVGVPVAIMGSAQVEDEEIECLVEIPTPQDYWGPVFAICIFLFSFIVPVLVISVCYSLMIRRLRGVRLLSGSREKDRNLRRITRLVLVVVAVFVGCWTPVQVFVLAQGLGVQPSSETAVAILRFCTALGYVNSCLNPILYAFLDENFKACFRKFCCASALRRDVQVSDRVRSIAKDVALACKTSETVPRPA", "assay": "Radioligand binding, human opioid ORL1 membranes, FlashPlate, [125I]-Nociceptin", "conditions": "compound at 10 μM, [125I]-Nociceptin; for A10: inhibition of radioligand binding: human ORL1 membranes", "how_it_was_run": "as §1"}, "Human κ-Opioid (KOP)": {"target": "T9, Human κ-Opioid (KOP) (Homo sapiens, UniProt P41145)", "T9 construct": "purchased Perkin Elmer Biosignal", "T9 sequence (P41145 whole entry)": "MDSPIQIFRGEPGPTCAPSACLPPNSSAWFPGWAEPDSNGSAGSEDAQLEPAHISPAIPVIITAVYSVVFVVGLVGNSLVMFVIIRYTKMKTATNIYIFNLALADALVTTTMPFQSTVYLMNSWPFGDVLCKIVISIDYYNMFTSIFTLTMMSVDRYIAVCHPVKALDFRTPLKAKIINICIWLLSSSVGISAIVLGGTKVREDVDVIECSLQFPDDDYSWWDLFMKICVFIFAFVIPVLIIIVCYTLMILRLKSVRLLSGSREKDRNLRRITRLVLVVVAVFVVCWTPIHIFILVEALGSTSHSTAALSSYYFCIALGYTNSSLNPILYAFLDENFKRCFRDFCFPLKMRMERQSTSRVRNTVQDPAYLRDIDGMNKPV", "assay": "Radioligand binding, human κ-opioid (KOP) membranes, filtration, [3H]-Diprenorphine", "conditions": "compound at 10 μM, [3H]-Diprenorphine; for A2: inhibition of radioligand binding: human KOP membranes", "how_it_was_run": "as §2"}, "[1]": {"target": "T10, Human melanin-concentrating hormone (MCH1) (Homo sapiens, UniProt Q99705)", "T10 construct": "purchased Perkin Elmer Biosignal", "T10 sequence (Q99705 whole entry)": "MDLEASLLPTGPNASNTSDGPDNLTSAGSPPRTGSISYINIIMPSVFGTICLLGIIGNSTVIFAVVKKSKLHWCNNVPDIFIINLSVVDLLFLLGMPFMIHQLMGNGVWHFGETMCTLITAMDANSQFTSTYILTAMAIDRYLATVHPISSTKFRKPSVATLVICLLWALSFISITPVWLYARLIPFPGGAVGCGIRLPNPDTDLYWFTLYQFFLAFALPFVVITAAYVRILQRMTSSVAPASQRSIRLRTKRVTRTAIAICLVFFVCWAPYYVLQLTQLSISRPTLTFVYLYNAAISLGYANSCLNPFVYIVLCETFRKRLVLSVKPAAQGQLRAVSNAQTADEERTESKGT", "assay": "Radioligand binding, human melanin-concentrating hormone MCH1 membranes, FlashPlate, [125I]-S36057", "conditions": "compound at 10 μM; for A6: inhibition of radioligand binding: [125I]-S36057, human MCH1 membranes", "how_it_was_run": "as §1"}, "[2]": {"target": "T11, Human neuropeptide Y (NPY-Y1) (Homo sapiens, UniProt P25929)", "T11 construct": "purchased Perkin Elmer Biosignal", "T11 sequence (P25929 1-384)": "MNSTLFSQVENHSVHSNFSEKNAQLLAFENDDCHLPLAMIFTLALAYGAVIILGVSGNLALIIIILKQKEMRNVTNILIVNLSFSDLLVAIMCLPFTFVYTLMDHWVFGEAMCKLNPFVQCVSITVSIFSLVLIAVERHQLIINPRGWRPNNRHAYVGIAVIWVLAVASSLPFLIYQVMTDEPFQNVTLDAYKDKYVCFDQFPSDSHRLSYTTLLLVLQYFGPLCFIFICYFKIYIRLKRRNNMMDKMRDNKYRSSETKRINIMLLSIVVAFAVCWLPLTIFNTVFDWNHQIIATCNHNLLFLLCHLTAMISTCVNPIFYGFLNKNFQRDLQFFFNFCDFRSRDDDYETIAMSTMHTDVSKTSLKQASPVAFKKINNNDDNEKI", "assay": "Radioligand binding, human neuropeptide Y NPY-Y1 membranes, FlashPlate, [125I]-PYY", "conditions": "compound at 10 μM, [125I]-PYY; for A9: inhibition of radioligand binding: human NPY-Y1 membranes", "how_it_was_run": "as §1"}}, "data": [{"smiles": "N=C(N)NCC(=O)NC1C(OCc2ccc(-c3ccccc3)cc2)OC(COCc2ccccc2)C(O)C1OCc1ccc2ccccc2c1", "note": "(stereo not drawn) [compound 403]", "values": [{"measurement": "A5: inhibition of radioligand binding", "setting": "Human melanocortin (MC5)", "value": "+ (“+” indicates greater than 50% inhibition at 10 μM)"}, {"measurement": "A4: inhibition of radioligand binding", "setting": "Human Melanocortin (MC4)", "value": "+ (“+” indicates greater than 50% inhibition at 10 μM)"}, {"measurement": "A1: inhibition of radioligand binding", "setting": "Human δ-opioid (DOP)", "value": "− (“−” indicates less than 50% inhibition at 10 μM)"}, {"measurement": "A7: inhibition of radioligand binding", "setting": "Human μ-opioid (MOP)", "value": "− (“−” indicates less than 50% inhibition at 10 μM)"}, {"measurement": "A11: inhibition of radioligand binding", "setting": "Mouse urotensin (mUR2)", "value": "− (“−” indicates less than 50% inhibition at 10 μM)"}, {"measurement": "A3: inhibition of radioligand binding", "setting": "Human Melanocortin (MC3)", "value": "+ (“+” indicates greater than 50% inhibition at 10 μM)"}, {"measurement": "A8: inhibition of radioligand binding", "setting": "Human neurokinin (NK1)", "value": "+ (“+” indicates greater than 50% inhibition at 10 μM)"}, {"measurement": "A10: inhibition of radioligand binding", "setting": "Human opioid (ORL1)", "value": "+ (“+” indicates greater than 50% inhibition at 10 μM)"}, {"measurement": "A2: inhibition of radioligand binding", "setting": "Human κ-Opioid (KOP)", "value": "− (“−” indicates less than 50% inhibition at 10 μM)"}, {"measurement": "A6: inhibition of radioligand binding", "setting": "[1]", "value": "+ (“+” indicates greater than 50% inhibition at 10 μM)"}, {"measurement": "A9: inhibition of radioligand binding", "setting": "[2]", "value": "− (“−” indicates less than 50% inhibition at 10 μM)"}]}, {"smiles": "CSC1OC(COCc2ccccc2)C(O)C(OCc2ccc3ccccc3c2)C1NC(=O)CNC(=N)N", "note": "(stereo not drawn) [compound 302]", "values": [{"measurement": "A5: inhibition of radioligand binding, human melanocortin (MC5)", "setting": "Human melanocortin (MC5)", "value": "+ (“+” indicates greater than 50% inhibition at 10 μM)"}, {"measurement": "A4: inhibition of radioligand binding, human melanocortin (MC4)", "setting": "Human Melanocortin (MC4)", "value": "+ (“+” indicates greater than 50% inhibition at 10 μM)"}, {"measurement": "A1: inhibition of radioligand binding, human δ-opioid (DOP)", "setting": "Human δ-opioid (DOP)", "value": "− (“−” indicates less than 50% inhibition at 10 μM)"}, {"measurement": "A7: inhibition of radioligand binding, human μ-opioid (MOP)", "setting": "Human μ-opioid (MOP)", "value": "− (“−” indicates less than 50% inhibition at 10 μM)"}, {"measurement": "A11: inhibition of radioligand binding, mouse urotensin (mUR2)", "setting": "Mouse urotensin (mUR2)", "value": "− (“−” indicates less than 50% inhibition at 10 μM)"}, {"measurement": "A3: inhibition of radioligand binding, human melanocortin (MC3)", "setting": "Human Melanocortin (MC3)", "value": "− (“−” indicates less than 50% inhibition at 10 μM)"}, {"measurement": "A8: inhibition of radioligand binding, human neurokinin (NK1)", "setting": "Human neurokinin (NK1)", "value": "+ (“+” indicates greater than 50% inhibition at 10 μM)"}, {"measurement": "A10: inhibition of radioligand binding, human opioid (ORL1)", "setting": "Human opioid (ORL1)", "value": "− (“−” indicates less than 50% inhibition at 10 μM)"}, {"measurement": "A2: inhibition of radioligand binding, human κ-opioid (KOP)", "setting": "Human κ-Opioid (KOP)", "value": "− (“−” indicates less than 50% inhibition at 10 μM)"}, {"measurement": "A6: inhibition of radioligand binding, human melanin-concentrating hormone (MCH1)", "setting": "[1]; [125I]-S36057", "value": "− (“−” indicates less than 50% inhibition at 10 μM)"}, {"measurement": "A9: inhibition of radioligand binding, human neuropeptide Y (NPY-Y1)", "setting": "[2]", "value": "− (“−” indicates less than 50% inhibition at 10 μM)"}]}, {"smiles": "NCCCC(=O)NC1C(OCc2ccc3ccccc3c2)OC(COCc2ccccc2)C(O)C1OCc1ccc(Cl)cc1", "note": "(single isomer, unassigned) [compound 456]", "values": [{"measurement": "A5: inhibition of radioligand binding", "setting": "Human melanocortin (MC5); 10 µM", "value": "+ (“+” indicates greater than 50% inhibition at 10 μM)"}, {"measurement": "A4: inhibition of radioligand binding", "setting": "Human Melanocortin (MC4); 10 µM", "value": "− (“−” indicates less than 50% inhibition at 10 μM)"}, {"measurement": "A1: inhibition of radioligand binding", "setting": "Human δ-opioid (DOP)", "value": "− (“−” indicates less than 50% inhibition at 10 μM)"}, {"measurement": "A7: inhibition of radioligand binding", "setting": "Human μ-opioid (MOP); 10 µM", "value": "− (“−” indicates less than 50% inhibition at 10 μM)"}, {"measurement": "A11: inhibition of radioligand binding", "setting": "Mouse urotensin (mUR2)", "value": "− (“−” indicates less than 50% inhibition at 10 μM)"}, {"measurement": "A3: inhibition of radioligand binding", "setting": "Human Melanocortin (MC3)", "value": "− (“−” indicates less than 50% inhibition at 10 μM)"}, {"measurement": "A8: inhibition of radioligand binding", "setting": "Human neurokinin (NK1)", "value": "+ (“+” indicates greater than 50% inhibition at 10 μM)"}, {"measurement": "A10: inhibition of radioligand binding", "setting": "Human opioid (ORL1); 10 µM", "value": "− (“−” indicates less than 50% inhibition at 10 μM)"}, {"measurement": "A2: inhibition of radioligand binding", "setting": "Human κ-Opioid (KOP)", "value": "− (“−” indicates less than 50% inhibition at 10 μM)"}, {"measurement": "A6: inhibition of radioligand binding", "setting": "[1]; 10 µM", "value": "+ (“+” indicates greater than 50% inhibition at 10 μM)"}, {"measurement": "A9: inhibition of radioligand binding", "setting": "[2]", "value": "− (“−” indicates less than 50% inhibition at 10 μM)"}]}]}
